# Data published in patent publication US20240342156A1, “METHODS FOR TREATING PAIN” (Xenon Pharmaceuticals Inc., priority 2019, published 2024).
# Key:
# [1] = Body weight of SNL rats over the duration of testing; format: in vivo, rat
# Experimental: (§1) Study Design. Briefly, on Day 0, von Frey and cold plate tests were used for baseline measurements of tactile and cold allodynia respectively. Post-baseline measurements, rats (171-209 g male Sprague Dawley) were anesthetized and an incision at the L4-S2 level was performed to expose the left L5 nerve. A ligature was tied tightly around the L5 nerve (Chung et al.; R. Dost et al., “The anti-hyperalgesic activity of Retigabine is mediated by KCNQ potassium channel activation.” Naunyn-Schmiedeberg's Arch. Pharmacol. 369 (2004) 382-390; Gordon Blackburn-Munro et al., “The anticonvulsant retigabine attenuates nociceptive behaviors in rat models of persistent and neuropathic pain.” Eur. J Pharmacol. 460 (2003) 109-116; and Wu Y J et al., “Discovery of (S,E)-3-(2-fluorophenyl)-N-(1-(3-(pyridin-3-yloxy)phenyl)ethyl)-acrylamide as a potent and efficacious KCNQ2 (Kv7.2) opener for the treatment of neuropathic pain.” Bioorg Med. Chem. Lett. 23 (2013) 6188-91). The wound was then sutured and the rats were allowed to recover. On Day 13, post-surgery baselines for tactile and cold allodynia were measured to verify neuropathic pain. Animals were assigned to treatment groups based on the post-surgery baseline score.
# (§2) Dosing: For efficacy testing, Compound A was dosed orally once a day for 5 consecutive days from Day 14-18.
# [2] = test system: rat spinal nerve ligation (SNL)/Chung model of neuropathic pain; assay: Spinal nerve ligation (SNL)/Chung model, thermal allodynia, cold plate test on lesioned paw; format: in vivo
# Experimental: (§3) Objective: The efficacy of Compound A was assessed using the rat spinal nerve ligation (SNL)/Chung model of neuropathic pain. The SNL model in rats was developed as described previously (Chung J M, Kim H K, Chung K. “Segmental spinal nerve ligation model of neuropathic pain.” Methods Mol. Med. 99 (2004) 35-45).
# Study Design. Briefly, on Day 0, von Frey and cold plate tests were used for baseline measurements of tactile and cold allodynia respectively. Post-baseline measurements, rats (171-209 g male Sprague Dawley) were anesthetized and an incision at the L4-S2 level was performed to expose the left L5 nerve. […] The wound was then sutured and the rats were allowed to recover. On Day 13, post-surgery baselines for tactile and cold allodynia were measured to verify neuropathic pain. Animals were assigned to treatment groups based on the post-surgery baseline score.
# as §2
# The cold plate apparatus was maintained at 4±1° C. and was surrounded by an acrylic glass enclosure. Rats were placed on the plate for a period of 5 minutes. The latency to 1st paw-withdrawal, total number of paw withdrawals, and total duration of withdrawal responses were recorded for the surgery hind paw.
# [3] = test system: rat spinal nerve ligation (SNL)/Chung model of neuropathic pain; assay: Spinal nerve ligation (SNL)/Chung model, tactile allodynia, electronic von Frey test on lesioned paw; format: in vivo
# Experimental: as §3, §1, §2
# Rats were placed under an inverted acrylic plastic box on a grid floor. The tip of an electronic von Frey probe was then applied with increasing force to the surgery hind paw and the force required to induce paw-withdrawal was automatically recorded. The procedure was carried out 3 times and the mean paw withdrawal force was calculated. The experimenter was double blinded to treatment.
# [4] = Day 14, test 1 h after administration, 128 mg/kg p.o.
# [5] = Day 18, test 1 h after administration, 128 mg/kg p.o. once on Day 14 and on Day 18
# [6] = Day 18 at 2 h, 20 mg/kg p.o. once daily Day 14-18
structure (smiles),measurement,setting,value
"CN1CC[C@]23c4c5ccc(O)c4O[C@H]2[C@@H](O)C=C[C@H]3[C@H]1C5.Cl [Morphine, Morphine hydrochloride, reference compound]",Body weight (g) (mean ± s.e.m.),"[1]; Day 14, 128 mg/kg p.o. once on Day 14 and on Day 18",295.9 ± 4.6 g
same,Body weight (g) (mean ± s.e.m.),"[1]; Day 15, 128 mg/kg p.o. once on Day 14 and on Day 18",312.8 ± 5.5 g
same,Body weight (g) (mean ± s.e.m.),"[1]; Day 16, 128 mg/kg p.o. once on Day 14 and on Day 18",302.0 ± 5.4 g
same,Body weight (g) (mean ± s.e.m.),"[1]; Day 17, 128 mg/kg p.o. once on Day 14 and on Day 18",298.9 ± 5.4 g
same,Body weight (g) (mean ± s.e.m.),"[1]; Day 18, 128 mg/kg p.o. once on Day 14 and on Day 18",306.7 ± 5.2 g
same,"Latency to first paw-withdrawal (s), Mean ± s.e.m.",[2]; [4],201.3 ± 35.8 s
same,"Latency to first paw-withdrawal, compared with Vehicle (p.o.), Δ%",[2]; [4],+55%
same,"Number of withdrawal responses, Mean ± s.e.m.",[2]; [4],7.9 ± 2.8
same,"Number of withdrawal responses, compared with Vehicle (p.o.), Δ%",[2]; [4],−22%
same,"Latency to first paw-withdrawal (s), Mean ± s.e.m.",[2]; [5],235.8 ± 33.2 s
same,"Latency to first paw-withdrawal, compared with Vehicle (p.o.), Δ%",[2]; [5],+150%
same,"Number of withdrawal responses, Mean ± s.e.m.",[2]; [5],4.6 ± 2.8
same,"Number of withdrawal responses, compared with Vehicle (p.o.), Δ%",[2]; [5],−58%
same,"Force inducing paw-withdrawal (g), Delta from baseline compared with Vehicle (p.o.), Δ",[3]; [4],+27.4 g
same,"Force inducing paw-withdrawal (g), Delta from baseline, Mean ± s.e.m.",[3]; [4],+27.7 ± 5.6 g
same,"Force inducing paw-withdrawal (g), Mean ± s.e.m.",[3]; [4],50.6 ± 5.0 g
same,"Force inducing paw-withdrawal (g), Delta from baseline compared with Vehicle (p.o.), Δ",[3]; [5],+24.3 g
same,"Force inducing paw-withdrawal (g), Delta from baseline, Mean ± s.e.m.",[3]; [5],+27.1 ± 4.6 g
same,"Force inducing paw-withdrawal (g), Mean ± s.e.m.",[3]; [5],50.0 ± 4.5 g
"CCOC(=O)Nc1ccc(NCc2ccc(F)cc2)cc1N [Retigabine, reference compound]",Body weight (g) (mean ± s.e.m.),"[1]; Day 14, 20 mg/kg p.o. once daily Day 14-18",300.8 ± 4.8 g
same,Body weight (g) (mean ± s.e.m.),"[1]; Day 15, 20 mg/kg p.o. once daily Day 14-18",312.6 ± 5.1 g
same,Body weight (g) (mean ± s.e.m.),"[1]; Day 16, 20 mg/kg p.o. once daily Day 14-18",321.1 ± 5.2 g
same,Body weight (g) (mean ± s.e.m.),"[1]; Day 17, 20 mg/kg p.o. once daily Day 14-18",330.6 ± 5.3 g
same,Body weight (g) (mean ± s.e.m.),"[1]; Day 18, 20 mg/kg p.o. once daily Day 14-18",336.8 ± 5.7 g
same,"Latency to first paw-withdrawal (s), Mean ± s.e.m.","[2]; Day 14 at 2 h, 20 mg/kg p.o.",272.7 ± 20.1 s
same,"Latency to first paw-withdrawal, compared with Vehicle (p.o.), Δ%","[2]; Day 14 at 2 h, 20 mg/kg p.o.",+110%
same,"Number of withdrawal responses, Mean ± s.e.m.","[2]; Day 14 at 2 h, 20 mg/kg p.o.",1.5 ± 1.3
same,"Number of withdrawal responses, compared with Vehicle (p.o.), Δ%","[2]; Day 14 at 2 h, 20 mg/kg p.o.",−85%
same,"Total duration of withdrawal responses (s), Mean ± s.e.m.","[2]; Day 14 at 2 h, 20 mg/kg p.o.",0.3 ± 0.3 s
same,"Total duration of withdrawal responses, compared with Vehicle (p.o.), Δ%","[2]; Day 14 at 2 h, 20 mg/kg p.o.",−86%
same,"Latency to first paw-withdrawal (s), Mean ± s.e.m.",[2]; [6],209.3 ± 36.1 s
same,"Latency to first paw-withdrawal, compared with Vehicle (p.o.), Δ%",[2]; [6],+122%
same,"Number of withdrawal responses, Mean ± s.e.m.",[2]; [6],3.4 ± 1.3
same,"Number of withdrawal responses, compared with Vehicle (p.o.), Δ%",[2]; [6],−69%
same,"Total duration of withdrawal responses (s), Mean ± s.e.m.",[2]; [6],27.3 ± 23.5 s
same,"Total duration of withdrawal responses, compared with Vehicle (p.o.), Δ%",[2]; [6],+153%
same,"Force inducing paw-withdrawal (g), Delta from baseline compared with Vehicle (p.o.), Δ","[3]; Day 14 at 2 h, 20 mg/kg p.o.",+4.0 g
same,"Force inducing paw-withdrawal (g), Delta from baseline, Mean ± s.e.m.","[3]; Day 14 at 2 h, 20 mg/kg p.o.",+4.0 ± 2.2 g
same,"Force inducing paw-withdrawal (g), Mean ± s.e.m.","[3]; Day 14 at 2 h, 20 mg/kg p.o.",26.5 ± 2.5 g
same,"Force inducing paw-withdrawal (g), Delta from baseline compared with Vehicle (p.o.), Δ",[3]; [6],+6.4 g
same,"Force inducing paw-withdrawal (g), Delta from baseline, Mean ± s.e.m.",[3]; [6],+9.2 ± 2.1 g
same,"Force inducing paw-withdrawal (g), Mean ± s.e.m.",[3]; [6],31.8 ± 2.2 g
